Laboratory results from PubChem BioAssay (NCI).
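Growth conditions: 96-well plates. Treatment: test compound, 48 hours, 5 concentrations. Analysis: linear interpolation between bracketing concentrations; unreached endpoints set to highest concentration. TGI: total growth inhibition.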

What was measured:
Assay in all cases: NCI tumour cell line growth inhibition, 48 h
HOP-92 NSCLC = tested on: HOP-92 NSCLC
SNB-78 CNS = tested on: SNB-78 CNS
HT29 colon = tested on: HT29 colon
M19-MEL melanoma = tested on: M19-MEL melanoma
DLD-1 colon = tested on: DLD-1 colon
RXF-631 renal = tested on: RXF-631 renal
KM20L2 colon = tested on: KM20L2 colon
RXF 393 renal = tested on: RXF 393 renal
XF 498 CNS = tested on: XF 498 CNS
HOP-18 NSCLC = tested on: HOP-18 NSCLC
LXFL 529 NSCLC = tested on: LXFL 529 NSCLC
DMS 273 small cell lung = tested on: DMS 273 small cell lung
DMS 114 small cell lung = tested on: DMS 114 small cell lung

Compound: C/C(=N\NS(=O)(=O)c1ccc(C)cc1)C(CN1CCOCC1)C(c1ccccc1)c1c(O)c2ccccc2oc1=O (configuration not stated)
- TGI (HOP-92 NSCLC): > 100 µM
- TGI (SNB-78 CNS): > 100 µM
- TGI (HT29 colon): > 100 µM
- TGI (M19-MEL melanoma): > 100 µM
- TGI (DLD-1 colon): > 100 µM
- TGI (RXF-631 renal): > 100 µM
- TGI (KM20L2 colon): > 100 µM
- TGI (RXF 393 renal): > 100 µM
- TGI (XF 498 CNS): > 100 µM
- TGI (HOP-18 NSCLC): > 100 µM
- TGI (LXFL 529 NSCLC): > 100 µM

Compound: C/C(CC(=O)Nc1ccc(Cl)c(Cl)c1)=N/NC(=O)C[n+]1ccccc1
- TGI (HOP-92 NSCLC): > 100 µM
- TGI (SNB-78 CNS): > 100 µM
- TGI (HT29 colon): > 100 µM
- TGI (M19-MEL melanoma): > 100 µM
- TGI (KM20L2 colon): > 100 µM
- TGI (DMS 273 small cell lung): > 100 µM
- TGI (RXF 393 renal): > 100 µM
- TGI (XF 498 CNS): > 100 µM
- TGI (HOP-18 NSCLC): > 100 µM
- TGI (LXFL 529 NSCLC): > 100 µM
- TGI (DMS 114 small cell lung): 66.1 µM

Compound: C=CCCC(OCOCCOC)c1cc(C)c(O[Si](C)(C)C(C)(C)C)c(C)c1 (configuration not stated)
- TGI (SNB-78 CNS): > 100 µM
- TGI (M19-MEL melanoma): 55.3 µM
- TGI (RXF-631 renal): 30.4 µM
- TGI (KM20L2 colon): 29 µM
- TGI (RXF 393 renal): 27.4 µM
- TGI (HOP-18 NSCLC): 96.4 µM
- TGI (LXFL 529 NSCLC): > 100 µM
- TGI (DMS 114 small cell lung): 28 µM

Compound: COc1ccc(N2C(=O)C3c4[nH]c5ccccc5c4C4CCCCCCCCCCC4C3C2=O)cc1 (configuration not stated)
- TGI (HOP-92 NSCLC): 45.2 µM
- TGI (HT29 colon): 18.9 µM
- TGI (M19-MEL melanoma): > 52.2 µM
- TGI (DLD-1 colon): > 39.9 µM
- TGI (KM20L2 colon): 11.5 µM
- TGI (DMS 273 small cell lung): 18.6 µM
- TGI (XF 498 CNS): 28 µM
- TGI (HOP-18 NSCLC): 6.53 µM
- TGI (LXFL 529 NSCLC): 23.7 µM
- TGI (DMS 114 small cell lung): > 47.5 µM

Compound: CCN1CCC(O)(c2ccc(C)cc2)C(C(=O)c2ccc(C)cc2)C1 (configuration not stated)
- TGI (HOP-92 NSCLC): 40.1 µM
- TGI (SNB-78 CNS): > 76.8 µM
- TGI (HT29 colon): 36.9 µM
- TGI (M19-MEL melanoma): > 61.2 µM
- TGI (DLD-1 colon): 33.4 µM
- TGI (KM20L2 colon): 17.7 µM
- TGI (DMS 273 small cell lung): 34.7 µM
- TGI (XF 498 CNS): 33.1 µM
- TGI (HOP-18 NSCLC): 36.9 µM
- TGI (LXFL 529 NSCLC): 31.3 µM

Compound: CCOC(=O)/C(=C\c1ccc(O)c(OC)c1)C(=O)c1ccccc1
- TGI (HOP-92 NSCLC): 70.7 µM
- TGI (SNB-78 CNS): 8.36 µM
- TGI (HT29 colon): > 66.8 µM
- TGI (M19-MEL melanoma): 79.6 µM
- TGI (DLD-1 colon): 38.2 µM
- TGI (KM20L2 colon): > 56.7 µM
- TGI (RXF 393 renal): 57.8 µM
- TGI (XF 498 CNS): > 52 µM
- TGI (HOP-18 NSCLC): > 100 µM
- TGI (LXFL 529 NSCLC): > 39.5 µM

Compound: COc1c(Cl)c2c(c(OC)c1OC)-c1ccc(OC)c(=O)c(Cl)c1C(NC(C)=O)CC2 (configuration not stated)
- TGI (HOP-92 NSCLC): 13.8 µM
- TGI (SNB-78 CNS): > 100 µM
- TGI (M19-MEL melanoma): > 28.4 µM
- TGI (DLD-1 colon): > 100 µM
- TGI (RXF-631 renal): 6.32 µM
- TGI (DMS 273 small cell lung): > 100 µM
- TGI (XF 498 CNS): 12.9 µM
- TGI (HOP-18 NSCLC): > 100 µM
- TGI (LXFL 529 NSCLC): > 100 µM
- TGI (DMS 114 small cell lung): 1.11 µM

Compound: COC(=O)c1ccc(OCc2ccc3nc(OC)c(OC)nc3c2)cc1
- TGI (SNB-78 CNS): > 100 µM
- TGI (HT29 colon): > 100 µM
- TGI (M19-MEL melanoma): > 100 µM
- TGI (DLD-1 colon): > 100 µM
- TGI (DMS 273 small cell lung): > 100 µM
- TGI (XF 498 CNS): > 100 µM
- TGI (HOP-18 NSCLC): > 100 µM
- TGI (DMS 114 small cell lung): > 100 µM

Compound: CC1=NN(c2ccccc2)C(=O)C1=C1SCCS1
- TGI (HOP-92 NSCLC): > 85.8 µM
- TGI (SNB-78 CNS): > 100 µM
- TGI (HT29 colon): > 100 µM
- TGI (M19-MEL melanoma): > 100 µM
- TGI (DLD-1 colon): > 57.9 µM
- TGI (RXF-631 renal): > 100 µM
- TGI (KM20L2 colon): > 100 µM
- TGI (DMS 273 small cell lung): > 100 µM
- TGI (RXF 393 renal): > 65.4 µM
- TGI (XF 498 CNS): > 100 µM
- TGI (HOP-18 NSCLC): > 100 µM
- TGI (LXFL 529 NSCLC): > 100 µM
- TGI (DMS 114 small cell lung): > 67.7 µM

Compound: CC(=O)c1cccc(NC(=O)/C(=N\NC(C)(C)C)c2c(O)c3ccccc3oc2=O)c1
- TGI (HOP-92 NSCLC): > 100 µM
- TGI (HT29 colon): > 100 µM
- TGI (M19-MEL melanoma): > 100 µM
- TGI (DLD-1 colon): > 100 µM
- TGI (KM20L2 colon): > 100 µM
- TGI (DMS 273 small cell lung): > 100 µM
- TGI (RXF 393 renal): > 100 µM
- TGI (XF 498 CNS): > 100 µM
- TGI (HOP-18 NSCLC): > 100 µM
- TGI (LXFL 529 NSCLC): > 100 µM
- TGI (DMS 114 small cell lung): > 100 µM

Compound: CN(C)c1ccc(-c2cc(=O)c3cc4c(cc3[nH]2)OCO4)cc1
- TGI (HT29 colon): > 100 µM
- TGI (M19-MEL melanoma): > 100 µM
- TGI (DLD-1 colon): > 100 µM
- TGI (RXF-631 renal): > 100 µM
- TGI (KM20L2 colon): > 100 µM
- TGI (DMS 273 small cell lung): > 100 µM
- TGI (RXF 393 renal): > 100 µM
- TGI (XF 498 CNS): > 100 µM
- TGI (LXFL 529 NSCLC): > 100 µM
- TGI (DMS 114 small cell lung): > 100 µM

Compound: COc1ccc2c(c1)c(=O)c1ccccc1n2/C=C/C(=O)O
- TGI (HOP-92 NSCLC): > 100 µM
- TGI (SNB-78 CNS): > 100 µM
- TGI (HT29 colon): > 100 µM
- TGI (DLD-1 colon): > 66.2 µM
- TGI (KM20L2 colon): > 100 µM
- TGI (DMS 273 small cell lung): > 67 µM
- TGI (RXF 393 renal): > 100 µM
- TGI (XF 498 CNS): > 100 µM
- TGI (HOP-18 NSCLC): > 100 µM
- TGI (LXFL 529 NSCLC): > 100 µM
- TGI (DMS 114 small cell lung): > 100 µM

Compound: COc1cccc2c1CCc1ccccc1CC2=O
- TGI (HOP-92 NSCLC): > 100 µM
- TGI (HT29 colon): > 100 µM
- TGI (M19-MEL melanoma): > 100 µM
- TGI (DLD-1 colon): > 100 µM
- TGI (KM20L2 colon): > 100 µM
- TGI (DMS 273 small cell lung): > 100 µM
- TGI (RXF 393 renal): > 100 µM
- TGI (XF 498 CNS): > 100 µM
- TGI (HOP-18 NSCLC): > 100 µM
- TGI (LXFL 529 NSCLC): > 100 µM
- TGI (DMS 114 small cell lung): > 100 µM

Compound: COc1ccc(N2C(=O)C3c4[nH]c5ccc(OC)cc5c4C4CCC(C(C)(C)C)CC4C3C2=O)cc1 (configuration not stated)
- TGI (HOP-92 NSCLC): 36.4 µM
- TGI (SNB-78 CNS): 45.3 µM
- TGI (HT29 colon): > 100 µM
- TGI (M19-MEL melanoma): > 100 µM
- TGI (DLD-1 colon): > 100 µM
- TGI (KM20L2 colon): > 100 µM
- TGI (DMS 273 small cell lung): 40.1 µM
- TGI (RXF 393 renal): 58.1 µM
- TGI (XF 498 CNS): > 100 µM
- TGI (HOP-18 NSCLC): > 100 µM
- TGI (LXFL 529 NSCLC): 65.2 µM
- TGI (DMS 114 small cell lung): > 100 µM

Compound: O=S1(=O)OCCOS(=O)(=O)C1I
- TGI (HOP-92 NSCLC): > 100 µM
- TGI (SNB-78 CNS): > 100 µM
- TGI (HT29 colon): > 100 µM
- TGI (M19-MEL melanoma): > 100 µM
- TGI (DLD-1 colon): > 100 µM
- TGI (RXF-631 renal): > 100 µM
- TGI (DMS 273 small cell lung): > 100 µM
- TGI (XF 498 CNS): > 100 µM
- TGI (LXFL 529 NSCLC): > 100 µM
- TGI (DMS 114 small cell lung): > 100 µM

Compound: COc1cc(C2=NN(C)C(c3ccc([N+](=O)[O-])o3)C2)cc(OC)c1OC (configuration not stated)
- TGI (HOP-92 NSCLC): > 100 µM
- TGI (SNB-78 CNS): > 100 µM
- TGI (HT29 colon): > 100 µM
- TGI (M19-MEL melanoma): > 100 µM
- TGI (DLD-1 colon): > 100 µM
- TGI (RXF-631 renal): > 100 µM
- TGI (KM20L2 colon): > 100 µM
- TGI (DMS 273 small cell lung): > 100 µM
- TGI (HOP-18 NSCLC): > 100 µM
- TGI (LXFL 529 NSCLC): > 100 µM
- TGI (DMS 114 small cell lung): > 100 µM
